Laboratory results as given in BindingDB's records for doi:10.1124/jpet.102.047092 (Case Western Reserve University, 2003).

How the values were obtained:
Vasopressin V2 receptor = Vasopressin V2 receptor (Homo sapiens, UniProt P30518)
[1] = target: Neuronal acetylcholine receptor subunit alpha-3 (Homo sapiens, UniProt P32297)
[2] = target: Neuronal acetylcholine receptor subunit alpha-4 (Homo sapiens, UniProt P43681)
Cannabinoid receptor 1 = Cannabinoid receptor 1 (Rattus norvegicus, UniProt P20272)
[3] = target: Neuronal acetylcholine receptor subunit alpha-2 (Homo sapiens, UniProt Q15822)
Vasopressin V1b receptor = target: T1, Vasopressin V1b receptor (Homo sapiens, UniProt P47901)
T1 sequence (P47901 whole entry): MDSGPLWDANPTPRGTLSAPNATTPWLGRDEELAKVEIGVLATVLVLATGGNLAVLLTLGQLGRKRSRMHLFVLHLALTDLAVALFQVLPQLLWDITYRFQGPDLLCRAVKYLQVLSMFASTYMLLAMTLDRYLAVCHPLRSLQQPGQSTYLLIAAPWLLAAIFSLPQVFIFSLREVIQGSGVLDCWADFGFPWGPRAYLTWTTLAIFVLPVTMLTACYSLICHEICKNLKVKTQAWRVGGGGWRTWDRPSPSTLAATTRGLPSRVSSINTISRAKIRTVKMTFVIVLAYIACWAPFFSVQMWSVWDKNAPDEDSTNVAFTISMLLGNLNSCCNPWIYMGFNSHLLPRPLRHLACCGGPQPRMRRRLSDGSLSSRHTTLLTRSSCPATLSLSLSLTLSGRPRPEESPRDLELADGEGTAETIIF

[4] = target: Neuronal acetylcholine receptor subunit alpha-4 (Rattus norvegicus, UniProt P09483)
[5] = target: 5-hydroxytryptamine receptor 1D (Homo sapiens, UniProt P28221)
[6] = target: Metabotropic glutamate receptor 2 (Rattus norvegicus) (UniProt P31421)
[7] = target: Metabotropic glutamate receptor 5 (Rattus norvegicus, UniProt P31424)
[8] = target: Metabotropic glutamate receptor 4 (Rattus norvegicus, UniProt P31423)
[9] = target: Metabotropic glutamate receptor 8 (Rattus norvegicus, UniProt P70579)
[10] = target: Metabotropic glutamate receptor 6 (Rattus norvegicus, UniProt P35349)
[11] = target: Metabotropic glutamate receptor 1 (Rattus norvegicus, UniProt P23385)

Chain of Neuronal acetylcholine receptor subunit alpha-4 (Rattus norvegicus, UniProt P09483) (P09483 whole entry): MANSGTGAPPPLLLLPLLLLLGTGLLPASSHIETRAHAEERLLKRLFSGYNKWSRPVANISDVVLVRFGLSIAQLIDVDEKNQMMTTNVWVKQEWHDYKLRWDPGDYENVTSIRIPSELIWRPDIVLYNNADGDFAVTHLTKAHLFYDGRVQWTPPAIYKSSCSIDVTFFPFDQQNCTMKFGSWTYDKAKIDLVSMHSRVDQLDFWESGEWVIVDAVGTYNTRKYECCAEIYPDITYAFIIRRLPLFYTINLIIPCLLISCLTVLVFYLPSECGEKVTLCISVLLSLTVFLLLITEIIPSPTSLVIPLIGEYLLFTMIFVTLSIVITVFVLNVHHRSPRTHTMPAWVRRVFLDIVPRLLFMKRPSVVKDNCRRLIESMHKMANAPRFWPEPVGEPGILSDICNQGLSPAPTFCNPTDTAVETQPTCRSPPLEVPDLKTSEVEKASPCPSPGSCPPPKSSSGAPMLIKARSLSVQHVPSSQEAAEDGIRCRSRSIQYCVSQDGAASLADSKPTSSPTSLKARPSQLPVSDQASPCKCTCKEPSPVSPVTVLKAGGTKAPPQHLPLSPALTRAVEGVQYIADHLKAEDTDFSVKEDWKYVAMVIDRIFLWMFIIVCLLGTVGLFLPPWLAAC
Chain of Neuronal acetylcholine receptor subunit alpha-2 (Q15822 whole entry): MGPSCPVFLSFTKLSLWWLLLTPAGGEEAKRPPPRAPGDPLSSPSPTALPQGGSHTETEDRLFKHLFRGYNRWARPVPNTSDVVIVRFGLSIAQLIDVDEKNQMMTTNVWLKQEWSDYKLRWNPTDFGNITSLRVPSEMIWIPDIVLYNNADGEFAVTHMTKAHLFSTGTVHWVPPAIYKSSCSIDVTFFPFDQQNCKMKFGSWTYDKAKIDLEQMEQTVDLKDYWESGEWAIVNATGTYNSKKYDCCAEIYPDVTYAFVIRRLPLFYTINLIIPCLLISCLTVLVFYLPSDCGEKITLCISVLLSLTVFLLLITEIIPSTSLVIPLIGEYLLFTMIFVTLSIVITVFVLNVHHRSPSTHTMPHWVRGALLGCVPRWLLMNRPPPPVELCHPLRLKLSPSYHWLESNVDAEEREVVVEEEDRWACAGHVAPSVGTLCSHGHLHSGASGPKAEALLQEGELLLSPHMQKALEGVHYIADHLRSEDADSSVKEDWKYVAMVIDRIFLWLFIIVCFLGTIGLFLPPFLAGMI
Chain of Neuronal acetylcholine receptor subunit alpha-4 (Homo sapiens, UniProt P43681) (P43681 whole entry): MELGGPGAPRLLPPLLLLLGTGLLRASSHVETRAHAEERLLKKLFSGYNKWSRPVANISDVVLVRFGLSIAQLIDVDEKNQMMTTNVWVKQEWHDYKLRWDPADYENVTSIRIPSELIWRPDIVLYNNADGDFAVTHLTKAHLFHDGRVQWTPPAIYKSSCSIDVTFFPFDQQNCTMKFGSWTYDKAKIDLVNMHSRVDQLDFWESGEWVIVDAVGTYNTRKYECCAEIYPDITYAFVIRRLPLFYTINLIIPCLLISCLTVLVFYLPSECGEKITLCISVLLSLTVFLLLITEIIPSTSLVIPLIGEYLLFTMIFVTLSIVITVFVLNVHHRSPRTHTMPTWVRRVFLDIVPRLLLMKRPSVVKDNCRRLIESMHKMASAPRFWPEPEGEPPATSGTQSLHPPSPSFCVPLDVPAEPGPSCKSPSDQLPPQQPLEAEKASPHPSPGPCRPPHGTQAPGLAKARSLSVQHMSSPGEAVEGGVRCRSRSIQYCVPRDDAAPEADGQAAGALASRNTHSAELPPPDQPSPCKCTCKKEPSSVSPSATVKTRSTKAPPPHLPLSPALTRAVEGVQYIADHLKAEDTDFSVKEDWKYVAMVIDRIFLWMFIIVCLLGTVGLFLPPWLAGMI
Chain of 5-hydroxytryptamine receptor 1D (P28221 whole entry): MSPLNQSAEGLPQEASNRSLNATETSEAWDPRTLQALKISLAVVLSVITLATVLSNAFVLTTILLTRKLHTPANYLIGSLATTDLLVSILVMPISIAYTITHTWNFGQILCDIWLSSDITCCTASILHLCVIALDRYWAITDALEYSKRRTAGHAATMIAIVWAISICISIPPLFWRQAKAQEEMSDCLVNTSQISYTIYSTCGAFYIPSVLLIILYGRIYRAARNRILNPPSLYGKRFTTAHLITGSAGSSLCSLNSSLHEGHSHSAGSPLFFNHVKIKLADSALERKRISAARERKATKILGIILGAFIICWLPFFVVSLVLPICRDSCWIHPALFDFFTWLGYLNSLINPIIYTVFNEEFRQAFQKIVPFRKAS
Chain of Metabotropic glutamate receptor 4 (P31423 whole entry): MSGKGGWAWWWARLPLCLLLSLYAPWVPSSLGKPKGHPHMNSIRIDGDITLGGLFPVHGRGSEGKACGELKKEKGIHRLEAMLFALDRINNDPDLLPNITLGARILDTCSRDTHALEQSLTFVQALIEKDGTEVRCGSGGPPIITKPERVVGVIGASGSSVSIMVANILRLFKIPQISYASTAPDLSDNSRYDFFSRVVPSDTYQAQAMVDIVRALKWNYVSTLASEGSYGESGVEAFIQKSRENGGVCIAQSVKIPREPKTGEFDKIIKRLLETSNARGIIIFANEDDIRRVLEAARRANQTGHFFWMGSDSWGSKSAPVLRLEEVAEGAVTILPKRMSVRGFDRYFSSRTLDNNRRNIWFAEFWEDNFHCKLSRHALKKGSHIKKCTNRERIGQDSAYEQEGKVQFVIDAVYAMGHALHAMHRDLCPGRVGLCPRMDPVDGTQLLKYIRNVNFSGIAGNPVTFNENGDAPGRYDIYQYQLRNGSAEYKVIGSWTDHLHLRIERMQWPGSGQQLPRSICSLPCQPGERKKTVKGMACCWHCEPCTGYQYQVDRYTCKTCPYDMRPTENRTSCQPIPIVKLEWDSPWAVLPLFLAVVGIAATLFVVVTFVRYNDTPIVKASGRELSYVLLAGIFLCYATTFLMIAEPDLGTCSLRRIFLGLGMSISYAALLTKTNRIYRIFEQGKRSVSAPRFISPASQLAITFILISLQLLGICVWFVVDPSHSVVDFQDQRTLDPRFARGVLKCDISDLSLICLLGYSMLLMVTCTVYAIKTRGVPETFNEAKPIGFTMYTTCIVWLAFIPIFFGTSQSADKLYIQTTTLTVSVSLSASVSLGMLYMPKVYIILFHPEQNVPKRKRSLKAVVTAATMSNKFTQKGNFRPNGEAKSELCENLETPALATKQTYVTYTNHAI
Chain of Cannabinoid receptor 1 (P20272 whole entry): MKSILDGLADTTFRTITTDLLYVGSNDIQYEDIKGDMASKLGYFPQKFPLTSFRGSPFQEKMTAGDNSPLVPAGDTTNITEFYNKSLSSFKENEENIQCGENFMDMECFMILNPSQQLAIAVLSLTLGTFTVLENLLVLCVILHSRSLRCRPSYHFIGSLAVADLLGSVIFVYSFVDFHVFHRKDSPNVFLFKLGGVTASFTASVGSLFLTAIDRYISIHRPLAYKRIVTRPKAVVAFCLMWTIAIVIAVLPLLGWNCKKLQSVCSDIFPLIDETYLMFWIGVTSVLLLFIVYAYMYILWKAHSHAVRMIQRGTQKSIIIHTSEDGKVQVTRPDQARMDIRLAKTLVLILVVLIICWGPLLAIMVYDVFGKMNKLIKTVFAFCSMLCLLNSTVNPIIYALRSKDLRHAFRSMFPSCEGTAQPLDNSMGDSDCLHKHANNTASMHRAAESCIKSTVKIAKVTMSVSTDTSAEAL
Chain of Metabotropic glutamate receptor 2 (Rattus norvegicus) (P31421 whole entry, looked up): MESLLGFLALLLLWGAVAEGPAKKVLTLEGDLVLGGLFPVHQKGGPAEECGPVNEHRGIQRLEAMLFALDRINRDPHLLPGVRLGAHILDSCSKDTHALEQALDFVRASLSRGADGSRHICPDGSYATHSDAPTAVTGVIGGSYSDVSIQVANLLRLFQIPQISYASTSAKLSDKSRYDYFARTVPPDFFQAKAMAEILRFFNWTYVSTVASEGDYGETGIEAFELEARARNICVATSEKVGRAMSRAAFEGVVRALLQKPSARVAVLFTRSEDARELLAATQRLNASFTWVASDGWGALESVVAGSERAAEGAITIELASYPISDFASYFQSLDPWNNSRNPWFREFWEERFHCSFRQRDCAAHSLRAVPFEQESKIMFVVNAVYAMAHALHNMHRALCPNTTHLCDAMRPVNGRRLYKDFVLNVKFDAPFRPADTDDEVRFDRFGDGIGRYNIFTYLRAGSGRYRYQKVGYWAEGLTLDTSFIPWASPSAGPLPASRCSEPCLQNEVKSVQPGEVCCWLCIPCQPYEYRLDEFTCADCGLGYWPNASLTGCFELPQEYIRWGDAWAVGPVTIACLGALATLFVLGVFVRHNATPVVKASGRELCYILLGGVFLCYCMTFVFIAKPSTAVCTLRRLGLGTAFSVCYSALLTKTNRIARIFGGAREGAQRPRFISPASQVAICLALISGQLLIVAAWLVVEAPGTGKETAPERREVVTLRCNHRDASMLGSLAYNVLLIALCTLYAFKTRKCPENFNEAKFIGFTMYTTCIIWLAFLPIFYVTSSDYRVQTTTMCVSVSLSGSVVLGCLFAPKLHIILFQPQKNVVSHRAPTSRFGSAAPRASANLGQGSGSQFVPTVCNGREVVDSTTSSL
Chain of Neuronal acetylcholine receptor subunit alpha-3 (P32297 whole entry): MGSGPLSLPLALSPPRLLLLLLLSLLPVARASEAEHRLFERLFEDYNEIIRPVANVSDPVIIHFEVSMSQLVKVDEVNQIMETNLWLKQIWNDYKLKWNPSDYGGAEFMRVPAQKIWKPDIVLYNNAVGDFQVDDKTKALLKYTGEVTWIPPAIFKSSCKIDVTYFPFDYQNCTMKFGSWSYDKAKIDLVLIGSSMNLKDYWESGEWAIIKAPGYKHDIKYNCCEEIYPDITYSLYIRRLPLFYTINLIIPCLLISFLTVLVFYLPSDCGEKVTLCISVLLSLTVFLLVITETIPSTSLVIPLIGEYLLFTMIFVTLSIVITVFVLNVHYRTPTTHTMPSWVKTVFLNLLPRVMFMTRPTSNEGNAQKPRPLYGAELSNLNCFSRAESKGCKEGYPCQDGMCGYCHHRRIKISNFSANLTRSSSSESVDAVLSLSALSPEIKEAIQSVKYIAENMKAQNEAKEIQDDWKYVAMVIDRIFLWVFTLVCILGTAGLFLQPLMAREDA

Structure (SMILES) | Ki (Vasopressin V2 receptor) | Ki [1] | Ki [2] | Ki (Cannabinoid receptor 1) | Ki [3] | Ki (Vasopressin V1b receptor) | Ki [4] | Ki [5] | EC50 [6] | EC50 [7] | EC50 [8] | EC50 [9] | EC50 [10] | EC50 [11]
N[C@@H](CCS)C(=O)O (racemic) [CAS_778] | > 10 µM | > 10 µM | > 10 µM | > 10 µM | > 10 µM | > 10 µM | > 10 µM | > 10 µM | – | – | – | – | – | –
N[C@@H](CCS(=O)O)C(=O)O [L-homocysteine sulfinic acid] | > 10 µM | > 10 µM | > 10 µM | > 10 µM | > 10 µM | > 10 µM | > 10 µM | > 10 µM | > 10 µM | 5.75 µM | > 10 µM | > 10 µM | 6.17 µM | > 10 µM
NC(CS(=O)O)C(=O)O (stereo not drawn) [CAS_109] | > 10 µM | > 10 µM | > 10 µM | > 10 µM | > 10 µM | > 10 µM | > 10 µM | > 10 µM | > 10 µM | > 10 µM | > 10 µM | > 10 µM | > 10 µM | > 10 µM
CSCC[C@@H](N)C(=O)O [CAS_6137] | > 10 µM | > 10 µM | > 10 µM | > 10 µM | > 10 µM | > 10 µM | > 10 µM | > 10 µM | – | – | – | – | – | –
N[C@@H](CS)C(=O)O [CAS_5862] | > 10 µM | > 10 µM | > 10 µM | > 10 µM | > 10 µM | > 10 µM | > 10 µM | > 10 µM | – | – | – | – | – | –
N[C@@H](CCS(=O)(=O)O)C(=O)O (racemic) | > 10 µM | – | – | – | – | > 10 µM | – | > 10 µM | – | – | – | – | – | –
NC(CSSCC(N)C(=O)O)C(=O)O (stereo not drawn) [CAS_595] | > 10 µM | > 10 µM | > 10 µM | > 10 µM | > 10 µM | > 10 µM | > 10 µM | > 10 µM | – | – | – | – | – | –
N[C@@H]1CCSC1=O [D-homocysteine thiolactone] | – | > 10 µM | > 10 µM | > 10 µM | > 10 µM | – | > 10 µM | – | – | – | – | – | – | –
N[C@H](CCS(=O)(=O)O)C(=O)O [D-homocysteic acid] | > 10 µM | > 10 µM | > 10 µM | > 10 µM | > 10 µM | > 10 µM | > 10 µM | > 10 µM | – | – | – | – | – | –
N[C@H](CS(=O)(=O)O)C(=O)O [L-cysteic acid] | > 10 µM | > 10 µM | > 10 µM | > 10 µM | > 10 µM | > 10 µM | > 10 µM | > 10 µM | > 10 µM | > 10 µM | > 10 µM | > 10 µM | > 10 µM | > 10 µM
N[C@H]1CCSC1=O [NSC_134505] | – | > 10 µM | > 10 µM | > 10 µM | > 10 µM | – | > 10 µM | – | – | – | – | – | – | –
N[C@H](CCS(=O)O)C(=O)O [D-homocysteine sulfinic acid] | > 10 µM | > 10 µM | > 10 µM | > 10 µM | > 10 µM | > 10 µM | > 10 µM | > 10 µM | – | – | – | – | – | –
